From EP2524912A1, “Amine derivatives” (Bionomics Limited, priority 2011, dated 2012) come the findings set out here.

human Kv1.3, sequence (P22001 whole entry): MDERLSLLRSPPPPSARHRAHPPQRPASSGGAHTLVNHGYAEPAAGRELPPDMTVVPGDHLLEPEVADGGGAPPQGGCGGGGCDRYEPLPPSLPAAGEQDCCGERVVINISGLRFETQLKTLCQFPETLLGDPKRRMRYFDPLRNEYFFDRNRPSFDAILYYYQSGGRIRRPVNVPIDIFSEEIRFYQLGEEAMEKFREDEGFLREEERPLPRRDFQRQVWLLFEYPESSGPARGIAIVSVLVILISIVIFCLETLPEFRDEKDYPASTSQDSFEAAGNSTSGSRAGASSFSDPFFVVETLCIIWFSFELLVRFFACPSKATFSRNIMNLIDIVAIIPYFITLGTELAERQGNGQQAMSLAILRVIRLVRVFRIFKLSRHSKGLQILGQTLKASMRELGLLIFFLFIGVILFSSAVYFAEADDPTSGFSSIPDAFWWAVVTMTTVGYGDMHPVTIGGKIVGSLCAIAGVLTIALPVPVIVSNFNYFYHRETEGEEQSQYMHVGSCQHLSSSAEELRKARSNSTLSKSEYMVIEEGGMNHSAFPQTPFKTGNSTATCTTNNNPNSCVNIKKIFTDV

The target in this test is human Kv1.3 (Homo sapiens, UniProt P22001). Nature of the test: Kv1.3 patch-clamp electrophysiology (planar electrode, whole-cell, steady state current). Format: cell-based. The conditions noted are these: CHO/Kv1.3 stable cell line; steady state current amplitude at end of 500 ms depolarising pulse to +40 mV; values given as ranges; read-out: IC50 (Kv1.3 ephys steady state). The procedure:
The inhibition data shown for the compounds of the list below was calculated using the steady state current amplitude at the end of the depolarising pulse in patch clamp evaluations (as described in the Pharmacology Example 2).
The human Kv1.3 construct (Kv1.3/pENTR, clone IOH61428) was purchased from Invitrogen and subcloned into pcDNA 3.2-DEST (Invitrogen). CHO-K1 cells obtained from ATCC (cat #CCL-61) were transfected with the Kv1.3/pcDNA3.2DEST construct and a stable cell line was developed through two rounds of limiting dilution under G418 selection. Positive (Kv1.3 expressing) clones were identified using electrophysiology.
CHO/Kv1.x stable cell lines were grown in a humidified atmosphere at 37 °C, 5% CO2 in T-75 flasks containing F12 Kaighn's medium supplemented with 10% fetal calf serum, 2 mM L-glutamine, 100 units/ml penicillin, 100 µg/ml streptomycin and 500 µg/ml G418 (to maintain selection). CHO/Kv1.1 and CHO/Kv1.5 cells used for patching were transferred to 33 °C for 48 hours prior to use.
Kv1.x currents were measured using a planar electrode version (Nanion Technologies GMBH) of the patch-clamp technique. Whole-cell Kv1.x current transients were evoked by 500 ms depolarising voltage pulses to +40 mV from a holding potential of -80 mV applied at 10 s intervals for Kv1.1 and Kv1.5 and at 30 s intervals for Kv1.3 to allow adequate time for recovery from inactivation. Cells were continuously bathed in a buffered saline solution containing (mM): 160 NaCl, 4.5 KCI, 2 CaCl2, 1 MgCl2, 5 glucose, 10 HEPES, pH 7.4, 290-310 mOsm.Kg^-1. The internal (pipette) solution contained (mM): 10 NaCl, 70 KF, 75 KCI, 2 MgCl2, 10 HEPES, 10 EGTA, pH 7.2, 290-310 mOsm.Kg^-1. Series resistance compensation (60-80%) was applied when the peak current amplitude exceeded 2 nA.
Compounds were initially dissolved in DMSO to 10 mM. After further dilution in DMSO, compounds were finally diluted in bath solution 1/200 (to give a final DMSO concentration of 0.5%) and applied directly to the recording chamber. Compounds were added at increasing concentrations allowing ample time for steady state block to be achieved between each concentration. Each compound was tested at 5-6 different concentrations on 2-3 cells. IC50 values can be determined by fitting the average normalised reduction of either the current integral or the steady state current amplitude at the end of the depolarising pulse obtained at each compound concentration to the Hill equation. The IC50 data reported herein is based on the steady state calculation.
On the technique in general: In patch-clamp work, channel activity is measured electrically.
In general, IC50 refers to the concentration needed to halve the response being measured. Consider `COCc1ccccc1C(C)N(Cc1ccccn1)C(=O)C1(S(=O)(=O)c2ccc(F)cc2)CC1` (stereo not shown) [Example 66, 1-[(4-fluorophenyl)sulfonyl]-N-{1-[2-(methoxymethyl)phenyl]ethyl}-N-(pyridin-2-ylmethyl)cyclopropanecarboxamide], for which the IC50 lay within 50 to 200 nM.
The same measure for `Cc1cccc(OCCN(C(=O)CCc2ccc(F)cc2)C(C)c2ccc3c(c2)CCC3)n1` (stereo not shown) [Example 53, N-[1-(2,3-dihydro-1H-inden-5-yl)ethyl]-3-(4-fluorophenyl)-N-[2-(6-methylpyridin-2-yloxy)ethyl]propanamide]: 50 to 200 nM; for `CC(CC(=O)N(CCOc1ccccn1)C(C)c1ccc2c(c1)CCC2)c1ccc(F)cc1` (stereo not shown) [Example 46, N-[1-(2,3-dihydro-1H-inden-5-yl)ethyl]-3-(4-fluorophenyl)-N-[2-(pyridin-2-yloxy)ethyl]butanamide]: 50 to 200 nM; for `CC(CC(=O)N(CCOc1cccc(Cl)n1)C(C)c1ccc2c(c1)CCC2)c1ccc(F)cc1` (stereo not shown) [Example 44, N-[1-(2,3-dihydro-1H-inden-5-yl)ethyl]-3-(4-fluorophenyl)-N-[2-(6-chloropyridin-2-yloxy)ethyl]butanamide]: 200 to 1000 nM.
